Results: ChEMBL document CHEMBL2046376, “Synthesis and antimicrobial activity of amide derivatives of polyether antibiotic-salinomycin” (2012)
Values after ≈ are worked out from the molar mass of the structure shown. Active and inactive are the calls of the source. The calls are words filed in the database; no cut-off is given here.

Legend:
Assay type in all cases: functional
Staphylococcus aureus [1] = test: Antibacterial activity against Staphylococcus aureus ATCC 6538 after 18 hrs by twofold serial agar dilution technique; settings: ATCC 6538, 18 h
Escherichia coli [2] = test: Antibacterial activity against Escherichia coli ATCC 10538 assessed as zone of inhibition at 400 ug/disc after 18 hrs by disc diffusion method; settings: ATCC 10538, 18 h, read-out: DIZ
Pseudomonas aeruginosa [3] = test: Antibacterial activity against Pseudomonas aeruginosa ATCC 27853 assessed as zone of inhibition at 400 ug/disc after 18 hrs by disc diffusion method; settings: ATCC 27853, 18 h, read-out: DIZ
Escherichia coli [4] = test: Antibacterial activity against Escherichia coli ATCC 25922 assessed as zone of inhibition at 400 ug/disc after 18 hrs by disc diffusion method; settings: ATCC 25922, 18 h, read-out: DIZ
[5] = system: Staphylococcus epidermidis; test: Antibacterial activity against Staphylococcus epidermidis ATCC 35984 assessed as zone of inhibition at 400 ug/disc after 18 hrs by disc diffusion method; settings: ATCC 35984, 18 h, read-out: DIZ
Pseudomonas aeruginosa [6] = test: Antibacterial activity against Pseudomonas aeruginosa ATCC 15442 after 18 hrs by twofold serial agar dilution technique; settings: for MIC: ATCC 15442, 18 h
Staphylococcus aureus [7] = test: Antibacterial activity against Staphylococcus aureus ATCC 29213 assessed as zone of inhibition at 400 ug/disc after 18 hrs by disc diffusion method; settings: ATCC 29213, 18 h, read-out: DIZ
Proteus vulgaris [8] = test: Antibacterial activity against Proteus vulgaris NCTC 4635 assessed as zone of inhibition at 400 ug/disc after 18 hrs by disc diffusion method; settings: NCTC 4635, 18 h, read-out: DIZ
Escherichia coli [9] = test: Antibacterial activity against Escherichia coli ATCC 25922 after 18 hrs by twofold serial agar dilution technique; settings: ATCC 25922, 18 h
Staphylococcus aureus [10] = test: Antibacterial activity against Staphylococcus aureus ATCC 6538 assessed as zone of inhibition at 400 ug/disc after 18 hrs by disc diffusion method; settings: ATCC 6538, 18 h, read-out: DIZ
Staphylococcus aureus [11] = test: Antibacterial activity against Staphylococcus aureus ATCC 25923 after 18 hrs by twofold serial agar dilution technique; settings: ATCC 25923, 18 h
Escherichia coli [12] = test: Antibacterial activity against Escherichia coli NCTC 8196 assessed as zone of inhibition at 400 ug/disc after 18 hrs by disc diffusion method; settings: NCTC 8196, 18 h, read-out: DIZ
Candida albicans [13] = test: Antifungal activity against Candida albicans ATCC 10231 after 24 hrs by twofold serial agar dilution technique; settings: for MIC: ATCC 10231, 24 h
Pseudomonas aeruginosa [14] = test: Antibacterial activity against Pseudomonas aeruginosa NCTC 6749 assessed as zone of inhibition at 400 ug/disc after 18 hrs by disc diffusion method; settings: NCTC 6749, 18 h, read-out: DIZ
Escherichia coli [15] = test: Antibacterial activity against Escherichia coli ATCC 10538 after 18 hrs by twofold serial agar dilution technique; settings: for MIC: ATCC 10538, 18 h
[16] = system: Staphylococcus epidermidis; test: Antibacterial activity against Staphylococcus epidermidis ATCC 35984 after 18 hrs by twofold serial agar dilution technique; settings: ATCC 35984, 18 h
Staphylococcus aureus [17] = test: Antibacterial activity against Staphylococcus aureus NCTC 4163 assessed as zone of inhibition at 400 ug/disc after 18 hrs by disc diffusion method; settings: NCTC 4163, 18 h, read-out: DIZ
[18] = system: Staphylococcus epidermidis; test: Antibacterial activity against Staphylococcus epidermidis ATCC 12228 after 18 hrs by twofold serial agar dilution technique; settings: ATCC 12228, 18 h
Escherichia coli [19] = test: Antibacterial activity against Escherichia coli NCTC 8196 after 18 hrs by twofold serial agar dilution technique; settings: for MIC: NCTC 8196, 18 h
Candida albicans [20] = test: Antifungal activity against Candida albicans ATCC 90028 after 24 hrs by twofold serial agar dilution technique; settings: for MIC: ATCC 90028, 24 h
Pseudomonas aeruginosa [21] = test: Antibacterial activity against Pseudomonas aeruginosa NCTC 6749 after 18 hrs by twofold serial agar dilution technique; settings: for MIC: NCTC 6749, 18 h
Staphylococcus aureus [22] = test: Antibacterial activity against Staphylococcus aureus NCTC 4163 after 18 hrs by twofold serial agar dilution technique; settings: NCTC 4163, 18 h
[23] = system: Staphylococcus epidermidis; test: Antibacterial activity against Staphylococcus epidermidis ATCC 12228 assessed as zone of inhibition at 400 ug/disc after 18 hrs by disc diffusion method; settings: ATCC 12228, 18 h, read-out: DIZ
[24] = system: Bordetella bronchiseptica; test: Antibacterial activity against Bordetella bronchiseptica ATCC 4617 after 18 hrs by twofold serial agar dilution technique; settings: for MIC: ATCC 4617, 18 h
Pseudomonas aeruginosa [25] = test: Antibacterial activity against Pseudomonas aeruginosa ATCC 27853 after 18 hrs by twofold serial agar dilution technique; settings: for MIC: ATCC 27853, 18 h
[26] = system: Bordetella bronchiseptica; test: Antibacterial activity against Bordetella bronchiseptica ATCC 4617 assessed as zone of inhibition at 400 ug/disc after 18 hrs by disc diffusion method; settings: ATCC 4617, 18 h, read-out: DIZ
Pseudomonas aeruginosa [27] = test: Antibacterial activity against Pseudomonas aeruginosa ATCC 15442 assessed as zone of inhibition at 400 ug/disc after 18 hrs by disc diffusion method; settings: ATCC 15442, 18 h, read-out: DIZ
Candida parapsilosis = test: Antifungal activity against Candida parapsilosis ATCC 22019 after 24 hrs by twofold serial agar dilution technique; settings: for MIC: Lodderomyces parapsilosis, ATCC 22019, 24 h
Proteus vulgaris [28] = test: Antibacterial activity against Proteus vulgaris NCTC 4635 after 18 hrs by twofold serial agar dilution technique; settings: for MIC: NCTC 4635, 18 h
Staphylococcus aureus [29] = test: Antibacterial activity against Staphylococcus aureus ATCC 29213 after 18 hrs by twofold serial agar dilution technique; settings: ATCC 29213, 18 h
Staphylococcus aureus [30] = test: Antibacterial activity against Staphylococcus aureus ATCC 25923 assessed as zone of inhibition at 400 ug/disc after 18 hrs by disc diffusion method; settings: ATCC 25923, 18 h, read-out: DIZ

## CC[C@@H](C(=O)[C@@H](C)[C@@H](O)[C@H](C)[C@@H]1O[C@@H]([C@@H](CC)C(=O)NCc2ccccc2)CC[C@@H]1C)[C@H]1O[C@]2(C=C[C@@H](O)[C@]3(CC[C@@](C)([C@H]4CC[C@](O)(CC)[C@H](C)O4)O3)O2)[C@H](C)C[C@@H]1C
Staphylococcus aureus [1]
  MIC: ≥ 256 µg/mL
Escherichia coli [2]
  zone of inhibition at 400 µg/disc: 10 mm
Pseudomonas aeruginosa [3]
  zone of inhibition at 400 µg/disc: 10 mm
Escherichia coli [4]
  zone of inhibition at 400 µg/disc: 10 mm
[5]
  zone of inhibition at 400 µg/disc: 10 mm
Pseudomonas aeruginosa [6]
  MIC: ≥ 256 µg/mL
Staphylococcus aureus [7]
  zone of inhibition at 400 µg/disc: 10 mm
Proteus vulgaris [8]
  zone of inhibition at 400 µg/disc: 10 mm
Escherichia coli [9]
  MIC: ≥ 256 µg/mL
Staphylococcus aureus [10]
  zone of inhibition at 400 µg/disc: 10 mm
Staphylococcus aureus [11]
  MIC: ≥ 256 µg/mL
Escherichia coli [12]
  zone of inhibition at 400 µg/disc: 10 mm
Candida albicans [13]
  MIC: ≥ 256 µg/mL
Pseudomonas aeruginosa [14]
  zone of inhibition at 400 µg/disc: 10 mm
Escherichia coli [15]
  MIC: ≥ 256 µg/mL
[16]
  MIC: ≥ 256 µg/mL
Staphylococcus aureus [17]
  zone of inhibition at 400 µg/disc: 10 mm
[18]
  MIC: ≥ 256 µg/mL
Escherichia coli [19]
  MIC: ≥ 256 µg/mL
Candida albicans [20]
  MIC: ≥ 256 µg/mL
Pseudomonas aeruginosa [21]
  MIC: ≥ 256 µg/mL
Staphylococcus aureus [22]
  MIC: ≥ 256 µg/mL
[23]
  zone of inhibition at 400 µg/disc: 10 mm
[24]
  MIC: ≥ 256 µg/mL
Pseudomonas aeruginosa [25]
  MIC: ≥ 256 µg/mL
[26]
  zone of inhibition at 400 µg/disc: 10 mm
Pseudomonas aeruginosa [27]
  zone of inhibition at 400 µg/disc: 10 mm
Candida parapsilosis
  MIC: ≥ 256 µg/mL
Proteus vulgaris [28]
  MIC: ≥ 256 µg/mL
Staphylococcus aureus [29]
  MIC: ≥ 256 µg/mL
Staphylococcus aureus [30]
  zone of inhibition at 400 µg/disc: 10 mm

## O=C(O)c1cn(C2CC2)c2cc(N3CCNCC3)c(F)cc2c1=O [CIPROFLOXACIN]
[5]
  zone of inhibition at 400 µg/disc: 32 mm
Pseudomonas aeruginosa [6]
  Activity: inactive
Staphylococcus aureus [7]
  zone of inhibition at 400 µg/disc: 22 mm
Staphylococcus aureus [10]
  zone of inhibition at 400 µg/disc: 28 mm
Candida albicans [13]
  Activity: inactive
Escherichia coli [15]
  Activity: inactive
[16]
  MIC: 0.25 µg/mL (≈ 0.754 µM)
Staphylococcus aureus [17]
  zone of inhibition at 400 µg/disc: 26 mm
Escherichia coli [19]
  Activity: inactive
Candida albicans [20]
  Activity: inactive
Pseudomonas aeruginosa [21]
  Activity: inactive
[23]
  zone of inhibition at 400 µg/disc: 30 mm
[24]
  Activity: inactive
Pseudomonas aeruginosa [25]
  Activity: inactive
Candida parapsilosis
  Activity: inactive
Proteus vulgaris [28]
  Activity: inactive
Staphylococcus aureus [29]
  MIC: 0.25 µg/mL (≈ 0.754 µM)
Staphylococcus aureus [30]
  zone of inhibition at 400 µg/disc: 26 mm

## CCCCNC(=O)[C@H](CC)[C@H]1CC[C@H](C)[C@H]([C@@H](C)[C@H](O)[C@H](C)C(=O)[C@H](CC)[C@H]2O[C@]3(C=C[C@@H](O)[C@]4(CC[C@@](C)([C@H]5CC[C@](O)(CC)[C@H](C)O5)O4)O3)[C@H](C)C[C@@H]2C)O1
Staphylococcus aureus [1]
  MIC: ≥ 256 µg/mL
Escherichia coli [2]
  zone of inhibition at 400 µg/disc: 10 mm
Pseudomonas aeruginosa [3]
  zone of inhibition at 400 µg/disc: 10 mm
Escherichia coli [4]
  zone of inhibition at 400 µg/disc: 10 mm
[5]
  zone of inhibition at 400 µg/disc: 10 mm
Pseudomonas aeruginosa [6]
  MIC: ≥ 256 µg/mL
Staphylococcus aureus [7]
  zone of inhibition at 400 µg/disc: 10 mm
Proteus vulgaris [8]
  zone of inhibition at 400 µg/disc: 10 mm
Escherichia coli [9]
  MIC: ≥ 256 µg/mL
Staphylococcus aureus [10]
  zone of inhibition at 400 µg/disc: 10 mm
Staphylococcus aureus [11]
  MIC: ≥ 256 µg/mL
Escherichia coli [12]
  zone of inhibition at 400 µg/disc: 10 mm
Candida albicans [13]
  MIC: ≥ 256 µg/mL
Pseudomonas aeruginosa [14]
  zone of inhibition at 400 µg/disc: 10 mm
Escherichia coli [15]
  MIC: ≥ 256 µg/mL
[16]
  MIC: ≥ 256 µg/mL
Staphylococcus aureus [17]
  zone of inhibition at 400 µg/disc: 10 mm
[18]
  MIC: ≥ 256 µg/mL
Escherichia coli [19]
  MIC: ≥ 256 µg/mL
Candida albicans [20]
  MIC: ≥ 256 µg/mL
Pseudomonas aeruginosa [21]
  MIC: ≥ 256 µg/mL
Staphylococcus aureus [22]
  MIC: ≥ 256 µg/mL
[23]
  zone of inhibition at 400 µg/disc: 10 mm
[24]
  MIC: ≥ 256 µg/mL
Pseudomonas aeruginosa [25]
  MIC: ≥ 256 µg/mL
[26]
  zone of inhibition at 400 µg/disc: 10 mm
Pseudomonas aeruginosa [27]
  zone of inhibition at 400 µg/disc: 10 mm
Candida parapsilosis
  MIC: ≥ 256 µg/mL
Proteus vulgaris [28]
  MIC: ≥ 256 µg/mL
Staphylococcus aureus [29]
  MIC: ≥ 256 µg/mL
Staphylococcus aureus [30]
  zone of inhibition at 400 µg/disc: 10 mm
